Laboratory results reported in US5776685A, “Protein kinase C assay” (Joslin Diabetes Center, priority 1996, dated 1998).
“Also recorded” adds a separate entry of the source.

Assays:
[1] = system: Saccharomyces cerevisiae strain 334 expressing bovine PKC alpha; experiment: Cell doubling time of yeast cultures expressing PKC alpha wild type and mutant cDNAs; assay type: cell-based; conditions: 2% galactose; for average cell doubling time: synthetic minimal medium, CD26 and ND153 values phorbol ester-independent
Procedure: FIG. 2 is a graph of cell doubling time of yeast cultures expressing PKC alpha wild type and mutant cDNAs. Freshly saturated cultures expressing control plasmids (Cont.), normal PKC alpha (PKCa) or deletion mutants D172-225, ND153 or CD26 were diluted to low cell densities. Cell growth was followed on a roller at 30 degrees C to measurable cell densities of the logarithmic growth phase at 0.2-0.6 O.D. 600. […] Average doubling times were calculated.
Yeast strains and culture conditions. PKC expression plasmids and YEp51 or YEp52 as controls were introduced into Saccharomyces cerevisiae strain 334 [MAT alpha, pep 4-3, prb1-122, ura 3-52; leu2-3, 112, reg1-501, gal1]by lithium acetate transformation See e.g., Ito et al. 1983, J. Bacterial. 153: 163. Cells were routinely grown at 30 degrees C on a culture roller or shaker in liquid culture or on 1.5% agar plates. The synthetic medium contained 2% glucose and was leucine-free to select for stable propagation of the expression plasmids. Expressing yeast colonies were identified phenotypically by replica plating on medium containing or lacking PMA. Phenol extracts of crude cell lysates were prepared to re-transform Escherichia coli DH5 alpha. PKC mutants were characterized by DNA sequencing and defined plasmids were re-introduces into S. cerevisiae 334. These strains were used in all experiments shown. 50 ml cultures were routinely inoculated from freshly saturated cultures and grown for 16 h to an optical density of 0.4 at O.D.600.
Cell doubling times were measured by O.D.600 reading of liquid cultures in the presence of 2% galactose as shown in FIG. 2 to test whether they correlate with the specific phenotypes (colony size) caused by normal mutant PKC alpha. […] A normal 4 hours doubling time was measured for all constructs in the absence of galactose.

bovine PKC alpha [2] = experiment: PKC catalytic activity in vitro (phosphorylation of [ser25]PKC19-31 in detergent cell extracts); assay type: biochemical; conditions: for PMA and Ca^2+ stimulated mutant PKC activity: Ca^2+: Ca^2+ stimulation of in vitro catalytic activity; for PMA and Ca^2+ stimulated mutant PKC activity: PMA: PMA stimulation, common symbol for in vitro catalytic activity and PMA-mediated increase of cell doubling time; for PMA and Ca^2+ stimulated mutant PKC activity: -: no stimulus (basal), common symbol for in vitro catalytic activity and cell doubling time response
Procedure: FIG. 4 is a graph which compares PKC mutant and wild type catalytic activities in vitro. […] Catalytic activity was stimulated by combinations of phosphatidylserine (PS), the phorbol ester PMA and calcium ions (Ca^2+). PS, open; PMA+PS, solid; Ca^2+ +PS, diagonally striped.
Cell lysis. About 6×10^8 expressing cells were washed in PBS and were resuspended in 1 ml lysis buffer containing 1% Triton X100, 50 mM Hepes pH 7.4, 15-mM NaC1, 5 mM EDTA, 5 mM EGTA, 10 μg/ml pepstatin, 40 μg/ml leupeptin, 10 μg/ml aprotinin and 200 μg/ml PMSF. Cell suspensions mixed with the same volume of acid washed glass beads (450-500 μm) were lysed mechanically by six 30 second vortexing steps interrupted by cooling on ice for at least 30 second in 50 ml screw cap polypropylene tubes. The lysate was cleared by 4,000 g centrifugation for 15 minutes at 4 degrees C and stored at […] for up to several weeks.
PKC catalytic activity. […] Phosphatidylserine in chloroform, with or without PMA was evaporated under N2 to dryness, resuspended in 20 mM Tris pH 7.5, mixed and sonicated at 4 degrees C for 45 seconds before use. To terminate the reaction the sample was placed on phosphocellulose paper (Whatman P81) which was repeatedly washed in 75 mM phosphoric acid. Bound radioactivity was determined by liquid scintillation spectroscopy.

bovine PKC alpha [3] = experiment: [3H]PDBu binding to yeast spheroplasts expressing PKC alpha forms; conditions: 14 nM [3H]PDBu
Procedure: FIG. 3 is a graph of phorbol ester binding to cells expressing PKC alpha wild type and mutant proteins.
Phorbol ester binding. About 6×10^8 expressing cells were washed twice in 10 mM K-phosphate buffer pH 7.0, 20 mM EDTA, once in 1M sorbitol and were resuspended in 10 ml 10 mM K-phosphate buffer pH 7.0, 1.1M sorbitol, 0.5 mM CaC12. Cells were incubated with 1 U glusulase (beta-glucuronidase/arylsulfatase from Helix pomatia, Boehringer Mannheim) for about 1 hour under shaking at 30 degrees C to remove the cell wall until test cell suspensions cleared in H2 O due to cell lysis.
Both were about 13-fold elevated over background levels of control cells. Similar findings have been reported for PKC overexpression in transfected mammalian fibroblasts. […] The internal deletion of aa 172-225 led to phorbol ester binding levels reduced by 60% compared to normal PKC alpha, a potential consequence of the removal of parts of the C2 domain.

[4] = system: Saccharomyces cerevisiae strain 334 expressing bovine PKC alpha; experiment: Phenotypic screen of PKC alpha mutant activity by yeast colony size on agar plates; assay type: cell-based; conditions: 2% galactose; for yeast colony size: 3 days
Procedure: The phenotypic screen of PKC alpha mutant activity by yeast colony size was performed as follows. […] Plates (9 cm diameter) were photograph after 3 days.
Galactose stimulation of cDNA expression resulted for some PKC forms in specific, decreased yeast colony sizes which were either dependent on or independent of phorbol ester activation after 3 days. […] Microscopically small colonies expressing ND153 grew to visible sizes with rates independently of PMA. Colonies expressing PKC alpha grew even more slowly to visible sizes during continued incubation in the presence of PMA.

[5] = system: Saccharomyces cerevisiae strain 334 expressing bovine PKC alpha; experiment: 45Ca2+ uptake into yeast cells expressing PKC alpha forms; assay type: cell-based; conditions: for Ca2+ uptake after PMA stimulation over the control cell background: 1 μM PMA; for increase in Ca^2+ uptake (basal): without PMA stimulation, versus control cells
Procedure: FIG. 5 is a graph of the modulation of extracellular Ca2+uptake by PKC alpha wild type and mutants.
^45 Ca^2 + uptake. Expressing yeast cells after 16 h in 2% galactose medium were washed with PBS when reaching 0.5 O.D.600. 10^7 cells were suspended in 100 μl of 50 mM MES pH 6.5, 5 mM MgSO4 and incubated with 1 μM PMA for 1 h at 30 degrees C under shaking on 96-well plates. Subsequently uptake of 2 μCi 45 Ca2+ at 300 μM CaCl2 was measured for 2 hours. Cells were rapidly transferred to Multiscreen filtration microtiter plates (Millipore) and washed four times with 200 μl of 10 mM MES, 10 mM Tris, 35 mM CaC12 pH 6.0. Filters were dried and cell-associated radioactivity was determined by liquid scintillation spectroscopy.
Ca^2+ influx has been reported in response to PKC activation in a variety of eukaryotic cells such as Nitella syncarpa plasmalemma, Aplysia bag cell neurons, rat ventricular myocytes and rat pituitary cells. To test whether the measured catalytic activities and the yeast phenotype correlate with other biological responses mediated by PKC, ^45 Ca^2+ uptake into expressing cells was determined after PMA stimulation. […] These responses are consistent with the catalytic activities and phenotypic responses of the mutants: elevated basal activity of ND153, full and reduced phorbol ester-stimulated activity of normal PKC alpha and D172-225, respectively, and lack of activity for CD26.

rat PKC β-1 = target: T1, rat PKC β-1 (Rattus norvegicus, UniProt P68403); experiment: PKC beta-1 enzymatic activity in detergent cell extracts; assay type: biochemical; conditions: phospholipid dependent
T1 construct: we inserted the complete protein coding cDNA of rat PKC β-1; made in house; host or cells: Saccharomyces cerevisiae strain 334, YEp51 with GAL10 promoter; crude detergent cell extract
Procedure: Duplicate measurements have routinely been made in our experiments. […] The methods described here are for the bovine PKC alpha experiments. The same or similar methods were used in the rat PKC beta-1 experiments.
PKC catalytic activity. PKC catalytic activity was measured as described in Hu et al., 1990, J. Biol. Chem. 265: 13864 by phosphorylation of 3 μg of the specific substrate peptide […] (Seq. ID No. 7) (Gibco, BRL) in the presence of 5 μCi [gamma-32P]ATP (3000 Ci/mmol) in 125 μl of 5-fold diluted cell extract for 30 min. at 25 degrees C with combinations of 160 μg/ml phosphatidylserine (Avanti Polar Lipids, Inc.), 1 μm PMA and 5 mM CaCl2. […] Bound radioactivity was determined by liquid scintillation spectroscopy.
To compare the enzymatic activity of normal and truncated PKC forms, phosphorylation of the PKC-specific substrate [ser^25 ]PKC19-31 a derivative of the pseudosubstrate sequence was measured in detergent cell extracts in response to combinations of phosphatidylserine, the phorbol ester PMA (phorbol-12-myristate-13-acetate), and Ca^2+. In the presence of phosphatidylserine alone only a background level of phosphorylation was detected in all samples including control cells which likely represents the activity of other endogenous yeast protein kinases.

T1 sequence (P68403 2-671): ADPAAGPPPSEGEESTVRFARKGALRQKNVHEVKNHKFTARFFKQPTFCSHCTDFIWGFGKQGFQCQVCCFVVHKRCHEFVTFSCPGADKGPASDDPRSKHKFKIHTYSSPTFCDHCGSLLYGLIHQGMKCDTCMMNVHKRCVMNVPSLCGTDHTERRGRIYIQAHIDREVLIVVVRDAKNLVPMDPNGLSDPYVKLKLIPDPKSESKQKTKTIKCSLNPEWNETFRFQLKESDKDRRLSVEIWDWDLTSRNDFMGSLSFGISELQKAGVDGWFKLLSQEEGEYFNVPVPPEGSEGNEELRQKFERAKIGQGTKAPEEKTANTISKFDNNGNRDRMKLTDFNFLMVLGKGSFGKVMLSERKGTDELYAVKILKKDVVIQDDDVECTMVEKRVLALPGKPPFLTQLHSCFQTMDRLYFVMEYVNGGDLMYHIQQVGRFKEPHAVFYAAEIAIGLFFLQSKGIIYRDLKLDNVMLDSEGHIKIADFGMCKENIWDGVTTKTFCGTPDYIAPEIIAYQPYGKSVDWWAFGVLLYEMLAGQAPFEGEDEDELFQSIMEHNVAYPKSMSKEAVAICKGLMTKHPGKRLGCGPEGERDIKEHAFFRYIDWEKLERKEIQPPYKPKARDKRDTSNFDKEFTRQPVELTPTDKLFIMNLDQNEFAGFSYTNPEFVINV

| Substance | average cell doubling time ([1]; absence of phorbol ester) | PMA and Ca^2+ stimulated mutant PKC activity: Ca^2+ (bovine PKC alpha [2]) | PMA and Ca^2+ stimulated mutant PKC activity: PMA (bovine PKC alpha [2]) | catalytic activity under any conditions (bovine PKC alpha [2]; combinations of phosphatidylserine, PMA and calcium) | PMA and Ca^2+ stimulated mutant PKC activity: - (bovine PKC alpha [2]) | [3H]PDBu binding level over background levels of control cells (bovine PKC alpha [3]) | yeast colony size / phenotype ([4]; independent of phorbol ester) | Ca2+ uptake after PMA stimulation over the control cell background [5] | increase in Ca^2+ uptake (basal) [5] | stimulation of PKC β-1 catalytic activity (rat PKC β-1) | increase in the cell doubling time ([1]; absence of phorbol ester) | cell doubling time ([1]; phorbol ester stimulation (1 μM PMA)) | stimulation of catalytic activity by phorbol ester (bovine PKC alpha [2]; PMA + phosphatidylserine) | catalytic activity in the presence of phosphatidylserine alone (elevated level) (bovine PKC alpha [2]; phosphatidylserine alone) | yeast colony size ([4]; absence of phorbol ester) | yeast colony size ([4]; phorbol ester activation (1 uM PMA)) |
| --- | --- | --- | --- | --- | --- | --- | --- | --- | --- | --- | --- | --- | --- | --- | --- | --- |
| CD26: PKCa deletion of aa 647-672 | 4 h | - | - | no activity was detected | - | about 13 fold | wild-type phenotype under any condition | unaffected by phorbol ester | same basal response as control cells |  |  |  |  |  |  |  |
| diacylglycerol |  |  |  |  |  |  |  |  |  | stimulated by diacylglycerol similar to PMA |  |  |  |  |  |  |
| PKC alpha: bovine protein kinase C alpha, full length, expressed in yeast | 6 h | ++ | ++ |  | - | about 13 fold |  | up to 4 fold | 1.4 fold |  | 50% | 16 h | more than 20 fold | no catalytic activity was detected | reduced colony sizes | substantially reduced yeast colony size; also recorded: substantially further decreased to microscopically small sizes |
